# From US11712426B2, “Metallo-liothyronine” (Synthonics, Inc., priority 2018, dated 2023)
# Experiments:
# [1] = cited from earlier work; for pKa 1 / pKa 2 / pKa 3: Table 1; for pKa of the carboxylic acid(s): carboxylic acid / COOH group
# [2] = plasma profiles of Na(HT3), Zn(HT3)2 and [Zn(T3)]n after oral administration (Example 11); assay type: in vivo, male Sprague Dawley rats; conditions: for Cmax average / AUC average / FWHM average (Full Width at Half Maximum): PO capsule; for Cmax average: D = duodenum targeting (Eudragit L100-55) for Zn compounds, S = stomach (uncoated gel cap) for Na(HT3); for AUC average / FWHM average (Full Width at Half Maximum): D for Zn compounds, S for Na(HT3)
# Protocol: Duodenum targeting (D) is accomplished by hand coating caps with Eudragit L100-55 (Acryl-Eze, water solvent) designed to dissolve in the duodenum at pH ca. 5.5. Stomach targeting (S) is by using uncoated gel caps.
# The Full Width at Half Maximum (FWHM), where Width is measured along the time axis, and Half Maximum is ½Cmax, is a parameter used to evaluate the degree of extended release of drug absorption.
# [3] = pH 5.0 and above; cited from earlier work
# [4] = in vivo; cited from earlier work
SMILES,pKa 1 [1],pKa 2 [1],other results
CC1(C)S[C@@H]2[C@H](NC(=O)[C@H](N)c3ccc(O)cc3)C(=O)N2[C@H]1C(=O)O [Amoxicillin],6.71,9.41,pKa of the carboxylic acid(s) [1]: 6.71; pKa of the phenol ([1]; phenol group): 9.41
CO[C@@]1(NC(=O)C2SC(=C(C(N)=O)C(=O)O)S2)C(=O)N2C(C(=O)O)=C(CSc3nnnn3C)CS[C@@H]21 (stereo partly shown) [Cefotetan],ca. 2,ca. 3,pKa of the carboxylic acid(s) [1]: 2-3
CN(C)[C@@H]1C(O)=C(C(N)=O)C(=O)[C@@]2(O)C(O)=C3C(=O)c4c(O)ccc(Cl)c4[C@@](C)(O)[C@H]3C[C@@H]12 [Chlortetracycline],3.33,7.55,pKa 3 [1]: 9.33
CN1C[C@@H]2C[C@H]1CN2c1cc2c(cc1F)c(=O)c(C(=O)O)cn2C1CC1 [Danofloxacin],6.07,8.56,
CN(C)[C@@H]1C(O)=C(C(N)=O)C(=O)[C@@]2(O)C(O)=C3C(=O)c4c(O)ccc(Cl)c4[C@@H](O)[C@H]3C[C@@H]12 [Demeclocycline],3.37,7.36,pKa 3 [1]: 9.44
CN1CCN(c2cc3c(cc2F)c(=O)c(C(=O)O)cn3-c2ccc(F)cc2)CC1 [Difloxacin],5.66,7.24,
C[C@H]1c2cccc(O)c2C(=O)C2=C(O)[C@]3(O)C(=O)C(C(N)=O)=C(O)[C@@H](N(C)C)[C@@H]3[C@@H](O)[C@@H]21 [Doxycycline],3.02,7.97,pKa 3 [1]: 9.15
CCn1cc(C(=O)O)c(=O)c2cc(F)c(N3CCNCC3)nc21 [Enoxacin],6.00,8.50,
CCN1CCN(c2cc3c(cc2F)c(=O)c(C(=O)O)cn3C2CC2)CC1 [Enrofloxacin],3.85,6.19,
"N[C@@H](Cc1cc(I)c(Oc2ccc(O)c(I)c2)c(I)c1)C(=O)O [Example T3, triiodothyronine]",,,pKa (physchem): 8.94
CN1CCN(c2c(F)cc3c(=O)c(C(=O)O)cn(CCF)c3c2F)CC1 [Fleroxacin],5.46,8.00,
CN1CCN(c2c(F)cc3c(=O)c(C(=O)O)cn4c3c2OCN4C)CC1 [Marbofloxacin],5.69,8.02,
C=C1c2c(Cl)ccc(O)c2C(=O)C2=C(O)[C@]3(O)C(=O)C(C(N)=O)=C(O)[C@@H](N(C)C)[C@@H]3[C@@H](O)[C@H]12 [Meclocycline],4.05,6.87,pKa 3 [1]: 9.59
CN(Cc1cnc2nc(N)nc(N)c2n1)c1ccc(C(=O)N[C@@H](CCC(=O)O)C(=O)O)cc1 [Methotrexate],4.8,,
N[C@@H](Cc1cc(I)c(Oc2ccc(O)c(I)c2)c(I)c1)C(=O)[O-].[Na+] [Na(HT3)],,,Cmax average [2]: 0.45 ng/mL; AUC average [2]: 3.71 ng·h/mL; FWHM average (Full Width at Half Maximum) [2]: 4.9 h
CC1COc2c(N3CCN(C)CC3)c(F)cc3c(=O)c(C(=O)O)cn1c23 (stereo not shown) [Ofloxacin],6.22,7.81,
CN(C)[C@@H]1C(O)=C(C(N)=O)C(=O)[C@@]2(O)C(O)=C3C(=O)c4c(O)cccc4[C@@](C)(O)[C@H]3[C@H](O)[C@@H]12 [Oxytetracycline],3.22,7.46,pKa 3 [1]: 8.94
CCn1cc(C(=O)O)c(=O)c2cnc(N3CCNCC3)nc21 [Pipemidic acid],5.42,8.18,
O=C(O)c1cn(-c2ccc(F)cc2)c2cc(N3CCNCC3)c(F)cc2c1=O [Sarafloxacin],5.62,8.18,
CCCCC(=O)N(Cc1ccc(-c2ccccc2-c2nnn[nH]2)cc1)[C@H](C(=O)O)C(C)C [Valsartan],,,in vitro dissolution [3]: complete and rapid; bioavailability [4]: about 25%
"N[C@@H](Cc1cc(I)c(Oc2ccc(O)c(I)c2)c(I)c1)C(=O)[O-].N[C@@H](Cc1cc(I)c(Oc2ccc(O)c(I)c2)c(I)c1)C(=O)[O-].[Zn+2] [Zn(HT3)2, Bis-T3 Zinc]",,,AUC with respect to simulated Cytomel ([2]; PO): comparable AUC; Cmax with respect to simulated Cytomel ([2]; PO): blunted Cmax; Cmax average [2]: 0.24 ng/mL; AUC average [2]: 3.45 ng·h/mL; FWHM average (Full Width at Half Maximum) [2]: 16.6 h
